Experimental findings from ChEMBL document CHEMBL5678818, “Discovery of potent SOS1 inhibitors that block RAS activation via disruption of the RAS-SOS1 interaction” (Proc Natl Acad Sci U S A, 2019) are described below.

Assay [1] concerns the target T1, Receptor-interacting serine/threonine-protein kinase 4 (Homo sapiens) (UniProt P57078).
T1 sequence (whole entry): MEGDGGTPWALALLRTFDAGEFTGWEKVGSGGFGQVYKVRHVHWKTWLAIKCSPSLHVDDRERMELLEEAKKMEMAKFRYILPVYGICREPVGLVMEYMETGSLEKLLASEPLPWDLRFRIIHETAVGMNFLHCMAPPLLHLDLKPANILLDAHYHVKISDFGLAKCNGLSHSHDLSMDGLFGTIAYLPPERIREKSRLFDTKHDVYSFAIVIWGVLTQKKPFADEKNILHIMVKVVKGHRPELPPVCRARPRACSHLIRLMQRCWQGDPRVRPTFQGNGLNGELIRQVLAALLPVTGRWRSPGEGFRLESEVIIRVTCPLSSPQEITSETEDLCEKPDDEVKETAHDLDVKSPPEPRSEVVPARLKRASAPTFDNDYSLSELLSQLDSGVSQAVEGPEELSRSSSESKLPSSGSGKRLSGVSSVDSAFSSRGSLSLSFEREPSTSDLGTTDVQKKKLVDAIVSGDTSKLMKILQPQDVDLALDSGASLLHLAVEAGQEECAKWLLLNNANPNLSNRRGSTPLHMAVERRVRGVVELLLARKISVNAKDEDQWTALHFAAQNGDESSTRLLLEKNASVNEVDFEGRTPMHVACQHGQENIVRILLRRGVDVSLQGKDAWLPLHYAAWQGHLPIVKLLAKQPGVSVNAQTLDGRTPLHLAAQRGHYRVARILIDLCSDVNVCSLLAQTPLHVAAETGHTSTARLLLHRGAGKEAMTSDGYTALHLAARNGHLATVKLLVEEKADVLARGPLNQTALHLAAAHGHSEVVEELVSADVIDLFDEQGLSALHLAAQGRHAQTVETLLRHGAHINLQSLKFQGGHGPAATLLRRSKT
Briefly: Inhibition of RIPK4 (unknown origin) assessed as residual activity at 1000 nM by KINOMEscan analysis relative to control.

Assay [2] has as its target T2, Serine/threonine-protein kinase RIO1 (Homo sapiens) (UniProt Q9BRS2).
T2 sequence (whole entry): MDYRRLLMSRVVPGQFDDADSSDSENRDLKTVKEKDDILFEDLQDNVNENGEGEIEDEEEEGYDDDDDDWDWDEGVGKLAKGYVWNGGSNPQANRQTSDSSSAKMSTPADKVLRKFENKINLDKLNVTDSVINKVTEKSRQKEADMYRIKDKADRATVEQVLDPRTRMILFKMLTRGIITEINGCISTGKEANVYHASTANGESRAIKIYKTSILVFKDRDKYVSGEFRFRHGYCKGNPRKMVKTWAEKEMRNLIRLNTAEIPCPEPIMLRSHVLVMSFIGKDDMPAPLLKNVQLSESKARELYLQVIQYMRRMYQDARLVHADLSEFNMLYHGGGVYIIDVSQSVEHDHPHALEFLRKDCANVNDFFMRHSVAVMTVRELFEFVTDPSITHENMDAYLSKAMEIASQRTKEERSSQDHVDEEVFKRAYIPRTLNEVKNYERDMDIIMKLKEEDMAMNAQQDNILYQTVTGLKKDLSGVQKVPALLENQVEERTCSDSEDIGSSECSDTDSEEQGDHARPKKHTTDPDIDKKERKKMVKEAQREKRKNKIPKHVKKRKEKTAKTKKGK
Briefly: Inhibition of RIOK1 (unknown origin) assessed as residual activity at 1000 nM by KINOMEscan analysis relative to control.

The target of assay [3] is T3, Interleukin-1 receptor-associated kinase 3 (Homo sapiens) (UniProt Q9Y616).
T3 sequence (whole entry): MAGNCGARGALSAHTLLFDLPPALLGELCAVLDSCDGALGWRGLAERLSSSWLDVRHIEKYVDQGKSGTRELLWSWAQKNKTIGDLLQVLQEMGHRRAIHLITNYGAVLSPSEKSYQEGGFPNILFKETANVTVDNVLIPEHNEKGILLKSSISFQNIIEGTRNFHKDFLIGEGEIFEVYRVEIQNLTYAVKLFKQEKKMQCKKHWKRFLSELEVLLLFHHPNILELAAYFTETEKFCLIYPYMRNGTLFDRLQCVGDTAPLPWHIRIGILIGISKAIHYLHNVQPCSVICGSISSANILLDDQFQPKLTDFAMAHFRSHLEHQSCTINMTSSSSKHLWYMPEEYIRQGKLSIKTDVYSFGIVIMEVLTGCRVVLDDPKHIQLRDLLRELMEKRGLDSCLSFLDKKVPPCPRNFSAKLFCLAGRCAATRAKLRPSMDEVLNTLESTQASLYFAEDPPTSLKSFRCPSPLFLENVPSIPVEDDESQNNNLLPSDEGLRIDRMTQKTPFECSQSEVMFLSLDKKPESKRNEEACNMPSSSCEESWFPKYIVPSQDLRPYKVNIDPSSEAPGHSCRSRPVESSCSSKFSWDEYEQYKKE
Briefly: Inhibition of IRAK3 (unknown origin) assessed as residual activity at 1000 nM by KINOMEscan analysis relative to control.

On to `COc1cc2nc(C)nc(N[C@H](C)c3cccc(-c4cn[nH]c4)c3)c2cc1OC`, for which the Activity in assay [1] was determined as 70%; in assay [2], 49%; in assay [3], 100%.

For `COc1cc2ncnc(N[C@H](C)c3cccc4ccccc34)c2cc1OC`, the Activity turned out to be 93% in assay [1], 82% in assay [2] and 100% in assay [3].
